Experimental data from ChEMBL document CHEMBL5465560, “Selectivity Literature for EUbOPEN Chemogenomic Library” (2024).

Experiments:
[1] = molecular target: Mitogen-activated protein kinase kinase kinase 10 (Homo sapiens) (UniProt Q02779); assay: Selectivity interaction (KinomeScan (DiscoverX)) EUB0000229b MAP3K10; settings: at 10 µM
[2] = molecular target: T1, Homeodomain-interacting protein kinase 4 (Homo sapiens) (UniProt Q8NE63); assay: Selectivity interaction (KinomeScan (DiscoverX)) EUB0000229b HIPK4; settings: at 10 µM
T1 sequence (whole entry): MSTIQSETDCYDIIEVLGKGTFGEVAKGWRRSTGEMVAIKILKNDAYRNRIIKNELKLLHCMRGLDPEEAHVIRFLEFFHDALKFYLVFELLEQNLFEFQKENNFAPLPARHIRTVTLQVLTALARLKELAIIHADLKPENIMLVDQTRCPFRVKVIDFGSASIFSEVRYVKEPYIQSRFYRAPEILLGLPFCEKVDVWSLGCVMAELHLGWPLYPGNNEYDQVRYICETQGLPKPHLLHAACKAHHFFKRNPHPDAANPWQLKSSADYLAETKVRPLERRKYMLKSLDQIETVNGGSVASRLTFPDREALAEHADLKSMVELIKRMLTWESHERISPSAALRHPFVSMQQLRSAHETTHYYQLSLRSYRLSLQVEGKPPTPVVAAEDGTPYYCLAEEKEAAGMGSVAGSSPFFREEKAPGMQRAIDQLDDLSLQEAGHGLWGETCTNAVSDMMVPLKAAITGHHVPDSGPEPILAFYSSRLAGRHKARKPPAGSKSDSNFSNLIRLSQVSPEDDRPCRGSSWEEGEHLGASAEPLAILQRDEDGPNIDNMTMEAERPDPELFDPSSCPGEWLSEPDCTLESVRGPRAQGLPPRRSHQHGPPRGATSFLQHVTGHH

[3] = molecular target: Phosphatidylinositol 4-phosphate 5-kinase type-1 gamma (Homo sapiens) (UniProt O60331); assay: Selectivity interaction (KinomeScan (DiscoverX)) EUB0000595a PIP5K1C; settings: at 10 µM
Phosphatidylinositol 4-phosphate 5-kinase type-1 gamma (Homo sapiens), sequence (O60331 whole entry): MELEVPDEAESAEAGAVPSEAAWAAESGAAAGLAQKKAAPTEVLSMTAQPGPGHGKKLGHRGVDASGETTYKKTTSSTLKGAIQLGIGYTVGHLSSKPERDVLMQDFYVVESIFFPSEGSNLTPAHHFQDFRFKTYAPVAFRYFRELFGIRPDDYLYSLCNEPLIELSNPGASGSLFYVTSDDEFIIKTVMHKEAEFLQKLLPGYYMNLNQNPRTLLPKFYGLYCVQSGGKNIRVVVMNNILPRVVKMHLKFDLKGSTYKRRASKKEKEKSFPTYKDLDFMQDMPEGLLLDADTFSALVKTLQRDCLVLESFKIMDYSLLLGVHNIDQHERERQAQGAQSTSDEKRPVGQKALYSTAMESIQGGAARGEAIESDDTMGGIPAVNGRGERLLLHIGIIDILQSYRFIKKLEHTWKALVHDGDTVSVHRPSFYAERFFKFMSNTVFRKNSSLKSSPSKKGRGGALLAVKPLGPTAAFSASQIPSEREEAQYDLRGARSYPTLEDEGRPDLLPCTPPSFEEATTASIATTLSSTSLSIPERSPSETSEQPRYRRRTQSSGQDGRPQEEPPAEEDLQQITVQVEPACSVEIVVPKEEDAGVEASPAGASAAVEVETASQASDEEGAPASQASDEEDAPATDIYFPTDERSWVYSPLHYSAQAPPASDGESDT

[4] = molecular target: Leukocyte tyrosine kinase receptor (Homo sapiens, UniProt P29376); assay: Selectivity interaction (KinomeScan (DiscoverX)) EUB0001079a LTK; settings: at 1 µM
Leukocyte tyrosine kinase receptor, sequence (P29376 whole entry): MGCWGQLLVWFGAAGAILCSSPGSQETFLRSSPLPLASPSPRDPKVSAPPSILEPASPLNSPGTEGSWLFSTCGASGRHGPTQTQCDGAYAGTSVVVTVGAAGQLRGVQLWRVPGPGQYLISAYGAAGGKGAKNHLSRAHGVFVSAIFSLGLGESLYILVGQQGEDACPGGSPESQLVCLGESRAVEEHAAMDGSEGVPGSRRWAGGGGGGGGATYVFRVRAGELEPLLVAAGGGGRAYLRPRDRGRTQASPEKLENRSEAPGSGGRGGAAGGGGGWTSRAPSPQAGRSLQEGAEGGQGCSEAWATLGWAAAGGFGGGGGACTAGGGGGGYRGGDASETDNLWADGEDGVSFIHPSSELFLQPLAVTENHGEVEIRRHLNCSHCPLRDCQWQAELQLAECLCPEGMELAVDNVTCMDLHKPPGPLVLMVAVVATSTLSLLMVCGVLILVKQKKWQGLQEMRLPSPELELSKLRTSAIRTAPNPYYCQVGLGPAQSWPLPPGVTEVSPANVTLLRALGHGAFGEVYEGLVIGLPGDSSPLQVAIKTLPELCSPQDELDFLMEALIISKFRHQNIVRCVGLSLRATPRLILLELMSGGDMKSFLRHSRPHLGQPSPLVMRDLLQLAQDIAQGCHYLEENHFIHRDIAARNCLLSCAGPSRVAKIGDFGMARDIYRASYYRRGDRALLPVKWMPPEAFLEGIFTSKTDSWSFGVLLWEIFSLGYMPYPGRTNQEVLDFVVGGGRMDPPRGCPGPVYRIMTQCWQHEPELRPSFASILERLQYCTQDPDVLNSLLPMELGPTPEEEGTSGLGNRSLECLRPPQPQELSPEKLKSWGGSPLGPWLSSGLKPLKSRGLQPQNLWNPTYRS

[5] = molecular target: Ribosomal protein S6 kinase beta-1 (Homo sapiens, UniProt P23443); assay: Selectivity interaction (KinomeScan (DiscoverX)) EUB0000666a RPS6KB1; settings: at 10 µM
Ribosomal protein S6 kinase beta-1, sequence (P23443 whole entry, looked up, the tested form may be a part): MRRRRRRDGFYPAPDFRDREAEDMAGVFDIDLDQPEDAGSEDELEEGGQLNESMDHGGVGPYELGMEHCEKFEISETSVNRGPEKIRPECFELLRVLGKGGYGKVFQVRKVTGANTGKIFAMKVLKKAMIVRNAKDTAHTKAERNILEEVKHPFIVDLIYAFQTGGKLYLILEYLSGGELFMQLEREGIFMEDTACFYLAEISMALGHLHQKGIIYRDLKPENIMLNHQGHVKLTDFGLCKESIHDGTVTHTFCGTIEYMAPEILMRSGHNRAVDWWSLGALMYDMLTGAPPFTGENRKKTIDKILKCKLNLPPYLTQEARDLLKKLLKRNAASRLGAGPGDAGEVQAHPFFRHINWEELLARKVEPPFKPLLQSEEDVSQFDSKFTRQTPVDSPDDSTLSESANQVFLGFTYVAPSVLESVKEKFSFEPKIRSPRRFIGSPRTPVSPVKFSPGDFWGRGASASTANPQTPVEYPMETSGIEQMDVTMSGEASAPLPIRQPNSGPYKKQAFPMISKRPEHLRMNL

[6] = molecular target: TP53-binding protein 1 (Homo sapiens) (UniProt Q12888); assay: Selectivity interaction (PWWP, WD40, and Tudor domain panel (DSLS measurements, literature)) EUB0000270b TP53BP1
[7] = molecular target: Serine/threonine-protein kinase PLK3 (Homo sapiens, UniProt Q9H4B4); settings: at 10 µM
Serine/threonine-protein kinase PLK3, sequence (Q9H4B4 whole entry, looked up): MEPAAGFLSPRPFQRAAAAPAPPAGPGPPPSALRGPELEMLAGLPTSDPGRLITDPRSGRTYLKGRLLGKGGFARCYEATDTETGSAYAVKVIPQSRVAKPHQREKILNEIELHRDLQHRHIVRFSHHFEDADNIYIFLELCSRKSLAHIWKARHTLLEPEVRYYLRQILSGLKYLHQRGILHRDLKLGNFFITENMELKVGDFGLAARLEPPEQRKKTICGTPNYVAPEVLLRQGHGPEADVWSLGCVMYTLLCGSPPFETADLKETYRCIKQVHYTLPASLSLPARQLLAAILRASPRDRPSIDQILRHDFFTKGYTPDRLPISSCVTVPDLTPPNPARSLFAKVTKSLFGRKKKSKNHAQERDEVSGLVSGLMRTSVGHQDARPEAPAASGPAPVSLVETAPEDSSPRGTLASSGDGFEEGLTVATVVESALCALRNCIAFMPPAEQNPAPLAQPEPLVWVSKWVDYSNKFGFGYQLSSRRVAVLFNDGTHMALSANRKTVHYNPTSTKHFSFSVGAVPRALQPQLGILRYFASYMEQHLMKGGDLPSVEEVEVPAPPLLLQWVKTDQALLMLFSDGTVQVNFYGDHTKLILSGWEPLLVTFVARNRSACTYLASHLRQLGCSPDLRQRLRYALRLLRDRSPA

[8] = molecular target: Tyrosine-protein kinase BTK (Homo sapiens, UniProt Q06187); assay: Selectivity interaction (Kinase panel (33PanQinase(R) Activity Assay)) EUB0000877a BTK
Tyrosine-protein kinase BTK, sequence (Q06187 whole entry): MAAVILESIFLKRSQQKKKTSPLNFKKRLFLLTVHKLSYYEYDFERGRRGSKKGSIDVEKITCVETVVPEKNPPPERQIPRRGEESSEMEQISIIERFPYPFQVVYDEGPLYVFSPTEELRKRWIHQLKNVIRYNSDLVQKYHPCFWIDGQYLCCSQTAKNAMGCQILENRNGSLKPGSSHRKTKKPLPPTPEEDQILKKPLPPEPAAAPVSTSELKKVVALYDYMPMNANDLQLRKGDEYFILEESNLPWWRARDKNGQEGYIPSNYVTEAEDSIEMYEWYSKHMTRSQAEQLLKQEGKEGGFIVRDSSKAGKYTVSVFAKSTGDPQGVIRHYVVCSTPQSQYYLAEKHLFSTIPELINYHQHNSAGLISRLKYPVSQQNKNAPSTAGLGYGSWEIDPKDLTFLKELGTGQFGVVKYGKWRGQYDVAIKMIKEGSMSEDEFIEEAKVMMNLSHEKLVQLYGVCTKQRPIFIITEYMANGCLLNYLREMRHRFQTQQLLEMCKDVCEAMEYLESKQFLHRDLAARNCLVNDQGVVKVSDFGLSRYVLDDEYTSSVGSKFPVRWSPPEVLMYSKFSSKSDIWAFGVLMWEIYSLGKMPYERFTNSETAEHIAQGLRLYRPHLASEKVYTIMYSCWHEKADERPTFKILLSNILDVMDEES

[9] = molecular target: T2, Inhibitor of nuclear factor kappa-B kinase subunit epsilon (Homo sapiens) (UniProt Q14164); assay: Selectivity interaction (ProQinase) EUB0000171b IKBKE
T2 sequence (whole entry): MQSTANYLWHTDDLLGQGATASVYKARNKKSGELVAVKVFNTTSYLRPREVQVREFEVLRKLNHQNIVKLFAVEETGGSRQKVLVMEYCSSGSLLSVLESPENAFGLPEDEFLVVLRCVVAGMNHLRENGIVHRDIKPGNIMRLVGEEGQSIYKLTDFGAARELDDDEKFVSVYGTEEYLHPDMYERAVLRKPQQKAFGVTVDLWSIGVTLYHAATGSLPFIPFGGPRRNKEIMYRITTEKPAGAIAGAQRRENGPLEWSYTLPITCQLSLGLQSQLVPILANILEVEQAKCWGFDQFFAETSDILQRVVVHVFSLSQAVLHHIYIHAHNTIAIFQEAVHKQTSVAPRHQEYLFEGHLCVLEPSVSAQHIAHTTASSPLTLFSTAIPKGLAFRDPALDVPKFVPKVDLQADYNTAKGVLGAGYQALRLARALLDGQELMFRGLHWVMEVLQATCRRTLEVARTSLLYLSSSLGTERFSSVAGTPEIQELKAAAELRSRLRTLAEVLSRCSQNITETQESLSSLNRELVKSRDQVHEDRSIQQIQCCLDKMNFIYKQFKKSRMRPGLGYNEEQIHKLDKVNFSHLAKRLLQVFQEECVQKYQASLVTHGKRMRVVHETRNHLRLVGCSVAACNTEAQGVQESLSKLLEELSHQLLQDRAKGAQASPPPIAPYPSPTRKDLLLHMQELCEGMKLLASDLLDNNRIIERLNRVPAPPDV

[10] = molecular target: T3, MAP kinase-activated protein kinase 5 (Homo sapiens) (UniProt Q8IW41); settings: at 10 µM
T3 sequence (whole entry): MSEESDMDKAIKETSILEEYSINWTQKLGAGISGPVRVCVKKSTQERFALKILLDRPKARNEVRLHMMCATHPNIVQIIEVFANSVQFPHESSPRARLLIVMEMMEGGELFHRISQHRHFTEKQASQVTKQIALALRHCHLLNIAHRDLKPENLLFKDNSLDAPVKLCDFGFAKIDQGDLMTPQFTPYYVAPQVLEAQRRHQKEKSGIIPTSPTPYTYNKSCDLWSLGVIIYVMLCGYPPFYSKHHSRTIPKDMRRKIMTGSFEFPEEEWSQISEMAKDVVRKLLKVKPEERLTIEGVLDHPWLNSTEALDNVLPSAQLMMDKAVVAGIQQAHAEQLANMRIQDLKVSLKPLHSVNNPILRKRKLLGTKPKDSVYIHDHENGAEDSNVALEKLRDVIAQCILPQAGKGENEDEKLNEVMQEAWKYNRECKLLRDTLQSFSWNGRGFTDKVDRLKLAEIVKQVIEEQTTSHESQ

[11] = molecular target: Mitogen-activated protein kinase 10 (Homo sapiens, UniProt P53779); assay: Selectivity interaction (Ambit KINOMEscan and KiNATiv profiling in Jurkat cells) EUB0000090b MAPK10; format: cell-based; settings: at 1 µM
Mitogen-activated protein kinase 10, sequence (P53779 whole entry): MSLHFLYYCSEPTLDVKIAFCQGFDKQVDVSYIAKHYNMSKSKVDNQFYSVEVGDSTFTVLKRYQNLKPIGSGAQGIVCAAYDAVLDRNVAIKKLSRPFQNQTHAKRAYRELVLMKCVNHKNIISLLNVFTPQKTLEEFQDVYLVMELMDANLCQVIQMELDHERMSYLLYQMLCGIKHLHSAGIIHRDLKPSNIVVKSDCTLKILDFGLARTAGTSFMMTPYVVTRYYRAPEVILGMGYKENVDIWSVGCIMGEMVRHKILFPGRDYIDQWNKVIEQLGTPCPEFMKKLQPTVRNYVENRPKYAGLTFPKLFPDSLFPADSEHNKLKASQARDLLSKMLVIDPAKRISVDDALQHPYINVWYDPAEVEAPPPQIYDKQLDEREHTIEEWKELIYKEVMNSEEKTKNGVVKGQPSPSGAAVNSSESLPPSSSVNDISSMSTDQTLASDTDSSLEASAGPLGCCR

Mitogen-activated protein kinase kinase kinase 10 (Homo sapiens), sequence (Q02779 whole entry, looked up): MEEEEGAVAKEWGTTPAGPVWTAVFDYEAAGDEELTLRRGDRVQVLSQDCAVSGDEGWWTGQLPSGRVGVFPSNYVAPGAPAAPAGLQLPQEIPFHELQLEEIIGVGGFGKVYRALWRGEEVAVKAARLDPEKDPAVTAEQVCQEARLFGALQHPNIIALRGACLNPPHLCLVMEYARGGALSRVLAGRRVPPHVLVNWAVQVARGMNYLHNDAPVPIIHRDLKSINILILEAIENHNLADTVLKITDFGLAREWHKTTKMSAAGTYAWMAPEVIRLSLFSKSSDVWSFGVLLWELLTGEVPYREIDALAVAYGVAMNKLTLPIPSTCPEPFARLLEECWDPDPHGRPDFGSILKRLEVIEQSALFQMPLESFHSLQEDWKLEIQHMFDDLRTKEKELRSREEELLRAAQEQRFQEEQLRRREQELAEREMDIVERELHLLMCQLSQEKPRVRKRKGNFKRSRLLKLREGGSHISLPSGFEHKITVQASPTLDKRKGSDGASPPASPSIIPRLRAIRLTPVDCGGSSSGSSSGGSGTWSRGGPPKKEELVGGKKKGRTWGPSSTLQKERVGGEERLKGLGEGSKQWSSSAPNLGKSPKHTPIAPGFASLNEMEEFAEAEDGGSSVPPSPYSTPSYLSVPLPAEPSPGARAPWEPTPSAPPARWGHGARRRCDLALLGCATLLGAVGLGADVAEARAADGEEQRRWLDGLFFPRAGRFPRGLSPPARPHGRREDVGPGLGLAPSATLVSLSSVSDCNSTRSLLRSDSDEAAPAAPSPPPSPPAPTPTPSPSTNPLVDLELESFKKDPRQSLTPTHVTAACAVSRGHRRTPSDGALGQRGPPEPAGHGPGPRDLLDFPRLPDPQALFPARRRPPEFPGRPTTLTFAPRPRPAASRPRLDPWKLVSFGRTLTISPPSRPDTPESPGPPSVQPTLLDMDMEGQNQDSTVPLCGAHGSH

What does the source list for `COc1cc(N(C)c2ccnc3ccc(C(F)(F)F)cc23)cc(OC)c1OC`?
% binding [1]: 100%; % binding [2]: 100%

Which % of control [3] does the source give for `COCC(=O)NC/C=C/c1ccc2ncnc(Nc3ccc(Oc4ccc(C)nc4)c(C)c3)c2c1` [CP-724714] here?
Its % of control is 93%.

`Nc1cnc(N2CCc3cc(S(=O)(=O)Nc4c(F)cc(Cl)cc4F)cc(N4CCCC4=O)c32)nc1` [TP-020n] was tested. Which % of control [4] did it give?
The % of control was 100%.

How did the % of control [5] turn out when `O=C(NOC[C@H](O)CO)c1ccc(F)c(F)c1Nc1ccc(I)cc1F` was run?
Its % of control is 100%.

`Cc1cc(CN)cc(C)c1-c1ncn(C)c1-c1cncn1C` was tested. Which dTagg [6] did it give?
The dTagg was 0.1 K.

With `Cc1cc([C@@H](C)Nc2ccccc2C(=O)O)c2nc(N3CCOCC3)cc(=O)n2c1` [AZD-6482] as the compound, how does the % of control [7] read?
Its % of control is 89%.

For `CCC(=O)N1CC[C@H](Nc2ncnc3c2CN(c2cnc(OC)c(C(F)(F)F)c2)CC3)C1` [LENIOLISIB], which IC50 [8] is on record?
Its IC50 is over 10 µM.

With `C=CC(=O)Nc1cccc(C(=O)Nc2ccc(Nc3cc(-c4[nH]c(SC)nc4C)ccn3)cc2)c1` as the compound, how does the % of control ([9]; at 1 µM) read?
The % of control was 88%.

And the % of control ([9]; at 5 µM)?
The % of control was 70%.

For `CCN(CC)CCCCNc1ncc2cc(-c3cc(OC)cc(OC)c3)c(NC(=O)NC(C)(C)C)nc2n1`, which % of control [10] is on record?
Its % of control is 100%.

How did the % of control [11] turn out when `CN(C)C/C=C/C(=O)Nc1ccc(C(=O)N2CCCC(Nc3ncc(Cl)c(-c4c[nH]c5ccccc45)n3)C2)cc1` (configuration not stated) was run?
Its % of control is 1%.
